According to patent publication US12503484B2, “Androstane derivatives with activity as pure or predominantly pure stimulators of SERCA2a for the treatment of heart failure” (Seismic Pharmaceuticals, priority 2019, dated 2025):
Structures can show the parent of a compound that is named as a salt.

Key:
Opiate μ (OP3, MOP) = Opiate μ (OP3, MOP) (Homo sapiens (Human), UniProt P35372); test: Receptor binding assay panel: Opiate μ (OP3, MOP)
Method: (§1) Radioligand binding to a panel of receptors was carried out by Eurofins on crude membrane preparations according to published procedures and by using appropriate reference standard (Eurofin, Taiwan, compound code CVie216-3 (1226840), study #TW04-0004235, quote #TW04-0004235-Q04, for Cvie Therapeutics Limited, Taiwan). […] was tested at the concentration of 10 μM.

[1] = molecular target: Transporter, Norepinephrine (NET) (Homo sapiens (Human), UniProt P23975); test: Receptor binding assay panel: Transporter, Norepinephrine (NET)
Method: as §1

Angiotensin AT1 = Angiotensin AT1 (Homo sapiens (Human), UniProt P30556); test: Receptor binding assay panel: Angiotensin AT1
Sequence of Angiotensin AT1 (P30556 whole entry): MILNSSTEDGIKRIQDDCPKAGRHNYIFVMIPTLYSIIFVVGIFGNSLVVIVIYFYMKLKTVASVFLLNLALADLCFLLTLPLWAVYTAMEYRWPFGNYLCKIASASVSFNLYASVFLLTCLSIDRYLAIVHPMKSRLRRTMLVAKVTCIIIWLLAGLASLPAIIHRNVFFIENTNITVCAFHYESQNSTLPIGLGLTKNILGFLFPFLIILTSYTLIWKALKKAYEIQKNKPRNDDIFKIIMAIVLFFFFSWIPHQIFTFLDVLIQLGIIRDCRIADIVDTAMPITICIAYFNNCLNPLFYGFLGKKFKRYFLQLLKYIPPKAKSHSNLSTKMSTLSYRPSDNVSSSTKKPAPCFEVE

[2] = test system: Serotonin (5-Hydroxytryptamine) 5-HT1, non selective; test: Receptor binding assay panel: Serotonin (5-Hydroxytryptamine) 5-HT1, non selective; design: species or system rat; settings: 10 μM
STZ diabetic rats = test: Haemodynamics in streptozotocin diabetic rats (echocardiography); format: in vivo, rat
Method: CVie214 and CVie216 were tested in a diabetic rat model. Briefly, rats were injected with streptozotocin (STZ). After 7-9 weeks from STZ injection, rats were submitted to transthoracic echocardiographic and Doppler evaluation performed under urethane anesthesia. Two-dimensionally guided M-mode recordings were used to obtain short-axis measurements of left ventricular end-diastolic diameter (LVEDD), left ventricular end-systolic diameter (LVESD), posterior (PW) and septal (SW) diastolic wall thickness according to the American Society of Echocardiography guidelines (Lang R M et al., Eur J Echocardiography 2006, 7:79-108). Fractional shortening was calculated as FS=(LVEDD−LVESD)/LVEDD. Relative wall thickness was calculated as PWTd+IVSTd/LVEDD. Mitral inflow was measured by pulsed Doppler at the tips of mitral leaflets from an apical 4-chamber view to obtain early and late filling velocities (E, A) and deceleration time of early filling velocity (DT). The deceleration slope was calculated as E/DT ratio. The mitral deceleration index was calculated as DT/E ratio. Tissue Doppler Imaging (TDI) was evaluated from the apical 4-chamber view to record septal mitral annular movements, i.e., peak myocardial systolic (s′) and early and late diastolic velocity (e′ and a′).
After baseline hemodynamic measurements were taken, the rats were administered Digoxin, CVie214, CVie216 and compared to control. Digoxin, used as reference drug, was intravenously infused at 0.11 mg/kg/min for 15 min and echocardiographic parameters measured after 1 h. CVie214-salt and CVie216-salt were intravenously infused in STZ diabetic rats at 0.2 mg/kg/min and echocardiographic parameters were measured after 15 min and 30 min.
Tables 4-6 show the haemodynamic parameters in STZ diabetic rats for Digoxin, CVie214-salt, and Cvie216-salt.

panel of receptors = test: Radioligand binding to a panel of receptors (Eurofins); settings: 10 μM
Progesterone PR-B = Progesterone PR-B (Homo sapiens (Human), UniProt P06401); test: Receptor binding assay panel: Progesterone PR-B
Sequence of Progesterone PR-B (P06401 whole entry): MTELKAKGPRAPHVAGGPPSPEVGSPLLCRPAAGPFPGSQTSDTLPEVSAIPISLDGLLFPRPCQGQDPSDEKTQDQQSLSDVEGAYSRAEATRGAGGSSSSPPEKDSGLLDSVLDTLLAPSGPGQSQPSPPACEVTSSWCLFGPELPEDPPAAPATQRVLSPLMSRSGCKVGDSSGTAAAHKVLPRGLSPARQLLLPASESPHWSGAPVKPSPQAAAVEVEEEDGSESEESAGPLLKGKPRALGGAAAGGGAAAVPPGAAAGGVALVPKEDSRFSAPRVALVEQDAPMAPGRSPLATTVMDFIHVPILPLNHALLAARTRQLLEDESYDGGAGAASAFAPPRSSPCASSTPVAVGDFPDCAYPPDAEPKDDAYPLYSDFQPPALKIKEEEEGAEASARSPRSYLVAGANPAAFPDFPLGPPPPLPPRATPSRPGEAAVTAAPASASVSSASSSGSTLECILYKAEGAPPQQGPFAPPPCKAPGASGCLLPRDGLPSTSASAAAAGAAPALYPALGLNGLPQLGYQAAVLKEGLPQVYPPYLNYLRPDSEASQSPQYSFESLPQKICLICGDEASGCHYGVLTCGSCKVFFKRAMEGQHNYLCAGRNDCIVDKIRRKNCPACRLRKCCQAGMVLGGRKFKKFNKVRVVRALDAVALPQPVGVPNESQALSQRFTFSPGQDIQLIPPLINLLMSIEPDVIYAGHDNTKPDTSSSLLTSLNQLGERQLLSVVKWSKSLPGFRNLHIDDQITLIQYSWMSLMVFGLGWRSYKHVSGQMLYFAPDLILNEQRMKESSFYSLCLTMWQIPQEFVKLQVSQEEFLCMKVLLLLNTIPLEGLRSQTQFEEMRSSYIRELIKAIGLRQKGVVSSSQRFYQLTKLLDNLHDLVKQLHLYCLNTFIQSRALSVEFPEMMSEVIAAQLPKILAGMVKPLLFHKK

[3] = molecular target: Nitric Oxide Synthase, Endothelial (eNOS) (Bos taurus (Bovine), UniProt P29473); test: Receptor binding assay panel: Nitric Oxide Synthase, Endothelial (eNOS); format: biochemical
[4] = Acute toxicity in the mouse; settings: Albino Swiss CD-1, in vivo
Method: The acute toxicity of the tested compound CVie214-salt and CVie216-salt have been determined in the mouse (Albino Swiss CD-1, body weight 30 g). Compounds have been orally administered or intravenously injected at increasing doses to identify the dose causing 50% mortality. Mortality occurred within 30 min after the administration and survival after 24 h.
As comparison, the acute toxicity for the reference compounds Digoxin and Istaroxime were also included. Digoxin refers to literature data (www.lookchem.com, Reference for Digoxin intravenous: Afifi A M, Ammar E M. Pharmacological Research Communications. Vol. 6, Pg. 417, 1974; Reference for Digoxin oral: Archives Internationales de Pharmacodynamie et de Therapie. Vol. 153, Pg. 436, 1965) (Table 3).

Imidazoline I2, Central = test: Receptor binding assay panel: Imidazoline I2, Central; design: species or system rat; settings: 10 μM
Method: as §1

Androgen (Testosterone) = Androgen (Testosterone) (Homo sapiens (Human), UniProt P10275); test: Receptor binding assay panel: Androgen (Testosterone)
Sequence of Androgen (Testosterone) (P10275 whole entry): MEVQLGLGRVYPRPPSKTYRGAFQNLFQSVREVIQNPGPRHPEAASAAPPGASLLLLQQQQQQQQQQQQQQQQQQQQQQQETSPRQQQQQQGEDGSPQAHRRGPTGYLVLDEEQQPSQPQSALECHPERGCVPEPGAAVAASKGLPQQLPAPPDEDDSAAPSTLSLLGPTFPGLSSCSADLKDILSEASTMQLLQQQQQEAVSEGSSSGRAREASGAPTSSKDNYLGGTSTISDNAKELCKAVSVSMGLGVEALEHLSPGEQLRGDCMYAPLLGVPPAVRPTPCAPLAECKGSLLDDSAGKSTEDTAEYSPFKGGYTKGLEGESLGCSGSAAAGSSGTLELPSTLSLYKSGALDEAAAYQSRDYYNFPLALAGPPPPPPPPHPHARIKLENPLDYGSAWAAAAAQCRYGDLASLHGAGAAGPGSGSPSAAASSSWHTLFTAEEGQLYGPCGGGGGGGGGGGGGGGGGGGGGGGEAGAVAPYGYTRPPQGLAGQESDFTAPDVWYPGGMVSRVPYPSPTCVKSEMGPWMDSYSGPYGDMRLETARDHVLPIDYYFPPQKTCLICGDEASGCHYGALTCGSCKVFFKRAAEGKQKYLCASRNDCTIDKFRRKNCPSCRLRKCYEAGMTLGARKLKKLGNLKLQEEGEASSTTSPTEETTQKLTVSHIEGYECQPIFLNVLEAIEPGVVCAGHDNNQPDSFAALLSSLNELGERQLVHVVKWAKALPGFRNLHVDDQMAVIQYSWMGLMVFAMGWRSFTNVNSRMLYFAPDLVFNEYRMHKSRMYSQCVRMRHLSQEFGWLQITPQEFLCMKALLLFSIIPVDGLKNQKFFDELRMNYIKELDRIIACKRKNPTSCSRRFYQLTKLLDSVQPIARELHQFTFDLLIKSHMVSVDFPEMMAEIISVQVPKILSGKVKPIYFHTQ
Method: as §1

GABAA, Muscimol, Central = test: Receptor binding assay panel: GABAA, Muscimol, Central; design: species or system rat; settings: 10 μM
Method: as §1

[5] = test system: ATPase, Ca2+, skeletal muscle; test: Receptor binding assay panel: ATPase, Ca2+, skeletal muscle; format: biochemical, pig; settings: 10 μM
Method: as §1

Adrenergic α1A = Adrenergic α1A (Rattus norvegicus (Rat), UniProt P43140); test: Receptor binding assay panel: Adrenergic α1A
Sequence of Adrenergic α1A (P43140 whole entry, the tested form may be a part): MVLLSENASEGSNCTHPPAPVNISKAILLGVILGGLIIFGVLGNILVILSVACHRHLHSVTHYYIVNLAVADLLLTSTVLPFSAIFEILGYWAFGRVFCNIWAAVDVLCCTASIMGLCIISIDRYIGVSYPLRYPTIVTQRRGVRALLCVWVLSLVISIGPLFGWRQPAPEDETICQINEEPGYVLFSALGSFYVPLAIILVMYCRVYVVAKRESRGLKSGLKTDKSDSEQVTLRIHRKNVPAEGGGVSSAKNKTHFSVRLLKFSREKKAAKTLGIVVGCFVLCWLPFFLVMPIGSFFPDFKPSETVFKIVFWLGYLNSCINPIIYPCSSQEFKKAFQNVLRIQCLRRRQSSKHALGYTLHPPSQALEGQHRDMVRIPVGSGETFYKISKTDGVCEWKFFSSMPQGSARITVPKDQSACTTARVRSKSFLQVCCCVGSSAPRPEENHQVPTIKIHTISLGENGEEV

[6] = after 15 min IV infusion 0.2 mg/kg/min
[7] = after 30 min IV infusion 0.2 mg/kg/min

Work on `C[C@]12CC[C@H](CC(=O)O)CC1C(O)CC1C2CC[C@]2(C)C(=O)CCC12` (stereo in doubt) [CVie216-salt, 2-(6beta-hydroxy-17-oxoandrostane-3-yl) acetic acid] yielded an inhibition at 10 µM (Opiate μ (OP3, MOP)) of 11%, an inhibition at 10 µM [1] of -4% and an inhibition at 10 µM (Angiotensin AT1) of 1%. For the same compound, the “% inhib” value [2] was 12%, the “diastolic function (in words)” value (STZ diabetic rats; IV infusion) was “ameliorated diastolic function” and the “overall cardiac function, SV and CO (in words)” value (STZ diabetic rats; IV infusion) was “improvement”. The “A late filling velocity of mitral inflow” value (STZ diabetic rats; [6]) was 0.66 ± 0.17 m/s, the CO cardiac output (STZ diabetic rats; [6]) was 165.45 ± 30.9 mL/min and the “DT deceleration time of E wave” value (STZ diabetic rats; [6]) was 49.72 ± 12.56 ms. The “DT/E mitral deceleration index” value (STZ diabetic rats; [6]) was 56.52 ± 16.45 s2/m, the “E early filling velocity of mitral inflow” value (STZ diabetic rats; [6]) was 0.90 ± 0.13 m/s and the “E/A index of LV function” value (STZ diabetic rats; [6]) was 1.42 ± 0.28. For the same compound, the E/DT deceleration slope (STZ diabetic rats; [6]) was 19.76 ± 8.27 m/s2, the “E/e′ index of LV filling pressure” value (STZ diabetic rats; [6]) was 39.08 ± 5.04 and the FS fractional shortening (STZ diabetic rats; [6]) was 56.29 ± 9.95%. The HR heart rate (STZ diabetic rats; [6]) was 221 ± 50 beat/min, the SV stroke volume (STZ diabetic rats; [6]) was 0.76 ± 0.12 ml/beat and the “a′ TDI late relaxation velocity” value (STZ diabetic rats; [6]) was 25.85 ± 6.98 cm/s. The “e′ TDI early relaxation velocity” value (STZ diabetic rats; [6]) was 23.1 ± 1.96 cm/s, the “s′ TDI contraction velocity” value (STZ diabetic rats; [6]) was 22.47 ± 2.45 cm/s and the “A late filling velocity of mitral inflow” value (STZ diabetic rats; [7]) was 0.68 ± 0.15 m/s. The CO cardiac output (STZ diabetic rats; [7]) was 181.82 ± 23.75 mL/min, the “DT deceleration time of E wave” value (STZ diabetic rats; [7]) was 47.46 ± 10.17 ms and the “DT/E mitral deceleration index” value (STZ diabetic rats; [7]) was 54.8 ± 12.84 s2/m. The “E early filling velocity of mitral inflow” value (STZ diabetic rats; [7]) was 0.87 ± 0.09 m/s, the “E/A index of LV function” value (STZ diabetic rats; [7]) was 1.34 ± 0.27 and the E/DT deceleration slope (STZ diabetic rats; [7]) was 19.38 ± 5.39 m/s2. The “E/e′ index of LV filling pressure” value (STZ diabetic rats; [7]) was “significantly reduced”, the FS fractional shortening (STZ diabetic rats; [7]) was 55.19 ± 7.32% and the HR heart rate (STZ diabetic rats; [7]) was 225 ± 50 beat/min. The SV stroke volume (STZ diabetic rats; [7]) was 0.83 ± 0.15 ml/beat, the “a′ TDI late relaxation velocity” value (STZ diabetic rats; [7]) was 26.66 ± 6.94 cm/s and the “e′ TDI early relaxation velocity” value (STZ diabetic rats; [7]) was 24.48 ± 2.1 cm/s. The “s′ TDI contraction velocity” value (STZ diabetic rats; [7]) was 22.68 ± 3.18 cm/s, the “interaction on a panel of receptors (in words)” value (panel of receptors) was “No significant interaction” and the inhibition at 10 µM (Progesterone PR-B) was 1%. It also gave an inhibition at 10 µM [3] of 2%, an LD50 at 24 h ([4]; iv) greater than 300 mg/kg and an LD50 at 24 h ([4]; oral, os) greater than 700 mg/kg. The “% inhib” value (Imidazoline I2, Central) was 1%, the inhibition at 10 µM (Androgen (Testosterone)) was 6% and the “% inhib” value (GABAA, Muscimol, Central) was 2%. For the same compound, the “% inhib” value [5] was −1% and the inhibition at 10 µM (Adrenergic α1A) was 5%.
